Results: US9133128B2, “Pyrazole derivatives as cannabinoid receptor 1 antagonists” (Research Triangle Institute, priority 2011, dated 2015)
Where two headings read alike, the source gives them in different places.

Key:
CB1 [1] = target: T1, CB1 (Homo sapiens, UniProt P21554); assay: Displacement of [3H]CP55940 in membranes of CHO-K1 cells over-expressing CB1; format: binding; details: for Binding Selectivity using CP55940 Displacement: CB2 Ki over CB1 Ki
T1 construct: expressed in transfected cells; host or cells: CHO-K1 (membranes)

CB1 [2] = target: T1, CB1; assay: Radioligand displacement of [3H]SR141716 at CB1; format: binding
CB2 = target: T2, CB2 (Homo sapiens, UniProt P34972); assay: Displacement of [3H]CP55940 in membranes of CHO-K1 cells over-expressing CB2; format: binding
T2 construct: expressed in transfected cells; host or cells: CHO-K1 (membranes)
Procedure: All compounds were characterized by H^1 NMR and evaluated using a calcium mobilization assay. Each compound was pharmacologically characterized using a functional fluorescent CB1 activated Gαq16-coupled intracellular calcium mobilization assay in CHO-K1 cells as has been previously described and apparent affinity (Ke) values were determined. See Zhang et al., J. Med. Chem. 2010, 53, 7048, which is incorporated herein by reference. Further characterization of select compounds was performed using radioligand displacement of [3H]1 and equilibrium dissociation constant (Ki) values were determined. Selectivity of these compounds at CB1 versus CB2 was also determined by obtaining Ki values at either receptor using displacement of [3H]CP55940 in membranes of CHO-K1 cells over-expressing either receptor. Data reported are average values from 3-6 measurements.
Select compounds were chosen for further study in radioligand displacement assays using radiolabeled rimonobant, SR141716 ([^3H]1). […] Selectivity against the CB2 receptor was determined by comparing the compound displacement of radiolabeled CP55940, which is a cannabinoid known to act as a full agonist at both CB1 and CB2 receptors. In general, tested compounds were selective for CB1 over CB2.

MDCK-MDR = MDCK-MDR transport (apical to basal); format: in vitro ADME; details: Table 4
CB1 [3] = target: T1, CB1; assay: CB1 activated Gαq16-coupled intracellular calcium mobilization assay in CHO-K1 cells (apparent affinity Ke); format: cell-based
[4] = Table 4, read-out: Ki (nM) v. [3H] CP55940 at CB1
[5] = Table 4, read-out: Ki (nM) v. [3H] CP55940 at CB2
[6] = Table 4, read-out: Ki (nM) v. [3H] SR141716 at CB1
[7] = Table 4, calcium mobilization, read-out: Ke (nM) at CB1

T1 sequence (P21554 whole entry): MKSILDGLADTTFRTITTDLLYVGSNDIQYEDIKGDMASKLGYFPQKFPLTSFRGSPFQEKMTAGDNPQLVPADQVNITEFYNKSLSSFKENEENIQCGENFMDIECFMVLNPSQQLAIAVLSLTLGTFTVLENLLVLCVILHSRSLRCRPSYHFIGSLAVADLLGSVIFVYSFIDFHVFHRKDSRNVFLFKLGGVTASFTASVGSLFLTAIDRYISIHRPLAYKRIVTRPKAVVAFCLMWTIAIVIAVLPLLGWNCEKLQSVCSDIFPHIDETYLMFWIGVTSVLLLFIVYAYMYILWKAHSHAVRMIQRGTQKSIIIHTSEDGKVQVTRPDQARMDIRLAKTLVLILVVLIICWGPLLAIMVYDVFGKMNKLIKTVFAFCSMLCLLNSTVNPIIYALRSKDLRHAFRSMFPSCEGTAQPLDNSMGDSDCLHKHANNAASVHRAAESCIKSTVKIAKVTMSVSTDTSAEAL
T2 sequence (P34972 whole entry): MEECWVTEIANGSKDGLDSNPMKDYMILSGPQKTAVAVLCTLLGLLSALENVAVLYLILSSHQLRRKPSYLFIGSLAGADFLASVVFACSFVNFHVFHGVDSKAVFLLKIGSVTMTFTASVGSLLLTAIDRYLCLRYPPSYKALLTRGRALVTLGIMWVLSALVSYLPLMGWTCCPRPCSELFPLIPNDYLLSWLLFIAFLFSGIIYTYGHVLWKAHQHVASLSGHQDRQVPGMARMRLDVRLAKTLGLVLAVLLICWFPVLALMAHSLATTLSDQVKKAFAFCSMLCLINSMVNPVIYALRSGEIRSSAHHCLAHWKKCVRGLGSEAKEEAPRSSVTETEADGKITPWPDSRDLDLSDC

Row | Binding Selectivity using CP55940 Displacement (CB1 [1]; Table 4) | Ki (CB1 [1]; [4]) [µM] | Ki (CB2; [5]) [µM] | % MDCK-MDR transport (apical to basal) (MDCK-MDR) [%] | Ki (CB1 [2]; [6]) [µM] | Structure (SMILES) | also measured
1 | 421.6 | 0.0199 | 8.39 | <1 | – | Cc1c(C(=O)N2CCC(C(=O)NC(C)(C)C)(c3ccccc3)CC2)nn(-c2ccc(Cl)cc2Cl)c1-c1ccc(Cl)cc1 [Cl, phenyl, C(O)NH(t-butyl), N-(tert-butyl)-1-(5-(4-chlorophenyl)-1-(2,4-dichlorophenyl)-4-methyl-1H-pyrazole-3-carbonyl)-4-phenylpiperidine-4-carboxamide] | –
2 | 3.4 | 0.0626 | 0.214 | – | 0.0137 | CC(=O)NC1(c2ccccc2)CCN(C(=O)c2nn(-c3ccc(Cl)cc3Cl)c(-c3ccc(Cl)cc3)c2C)CC1 [Cl, phenyl, NHC(O)CH3, N-(1-{[5-(4-chlorophenyl)-1-(2,4-dichlorophenyl)-4-methyl-1H-pyrazol-3-yl]carbonyl}-4-phenylpiperidin-4-yl)acetamide] | Kb (CB1 [3]; [7]): 201 nM
3 | 424.6 | 0.0471 | ≥ 20 | <1 | 0.0181 | Cc1c(C(=O)N2CCC(NC(=O)NC(C)(C)C)(c3ccccc3)CC2)nn(-c2ccc(Cl)cc2Cl)c1-c1ccc(Cl)cc1 [Cl, phenyl, NHC(O)NH(t-butyl), 3-tert-butyl-1-(1-{[5-(4-chlorophenyl)-1-(2,4-dichlorophenyl)-4-methyl-1H-pyrazol-3-yl]carbonyl}-4-phenylpiperidin-4-yl)urea] | –
4 | 226.3 | 0.0145 | 3.28 | – | 0.00267 | Cc1c(C(=O)N2CCC(C(N)=O)(c3ccccc3)CC2)nn(-c2ccc(Cl)cc2Cl)c1-c1ccc(Br)cc1 [Br, phenyl, CONH2, 1-{[5-(4-bromophenyl)-1-(2,4-dichlorophenyl)-4-methyl-1H-pyrazol-3-yl]carbonyl}-4-phenylpiperidine-4-carboxamide] | –
5 | – | 0.0784 | 2.22 | – | 0.0346 | CCNC1(C(N)=O)CCN(C(=O)c2nn(-c3ccc(Cl)cc3Cl)c(-c3ccc(Cl)cc3)c2C)CC1 [Cl, NHC2H5, C(O)NH2, 1-{[5-(4-chlorophenyl)-1-(2,4-dichlorophenyl)-4-methyl-1H-pyrazol-3-yl]carbonyl}-4-(ethylamino)piperidine-4-carboxamide] | –

More lines, now with the values behind:

Row | Structure (SMILES) | Binding Selectivity using CP55940 Displacement (CB1 [1]; Table 4) | Ki (CB1 [1]; [4]) [µM] | Ki (CB2; [5]) [µM] | % MDCK-MDR transport (apical to basal) (MDCK-MDR) [%] | Ki (CB1 [2]; [6]) [µM] | also measured
6 | Cc1c(C(=O)NCC2CCC(CNS(C)(=O)=O)CC2)nn(-c2ccc(Cl)cc2Cl)c1-c1ccc(Cl)cc1 (mixture of isomers) | – | – | – | – | – | Ki (CB1 [1]; Table 3, radioligand [3H]CP55940, read-out: Ki(μM) CB1 CP55940): 0.036 µM; Ki (CB1 [2]; Table 3, radioligand [3H]SR141716, read-out: Ki(μM) CB1 SR141716): 0.008 µM; Ki (CB2; Table 3, radioligand [3H]CP55940, read-out: Ki(μM) CB2 CP55940): 0.96 µM
7 | Cc1c(C(=O)N2CCC(O)(c3ccccc3)CC2)nn(-c2ccc(Cl)cc2Cl)c1-c1ccc(Cl)cc1 [Cl, phenyl, OH, 1-{[5-(4-chlorophenyl)-1-(2,4-dichlorophenyl)-4-methyl-1H-pyrazol-3-yl]carbonyl}-4-hydroxy-4-phenylpiperidine] | 12.3 | 0.0674 | 0.831 | – | 0.00963 | –
8 | Cc1c(C(=O)N2CCC(O)(c3ccccc3)CC2)nn(-c2ccc(Cl)cc2Cl)c1-c1ccc(N(C)C)cc1 [N(CH3)2, phenyl, OH, 1-{[1-(2,4-dichlorophenyl)-5-[4-(dimethylamino)phenyl]-4-methyl-1H-pyrazol-3-yl]carbonyl}-4-phenylpiperidin-4-ol] | 1.0 | 0.384 | 0.4 | – | 0.0725 | Kb (CB1 [3]; [7]): 679 nM
9 | CCOC(=O)N1CCC(NC(=O)c2nn(-c3ccc(Cl)cc3Cl)c(-c3ccc(Cl)cc3)c2C)CC1 [OC2H5, Ethyl 4-[5-(4-Chlorophenyl)-1-(2,4-dichlorophenyl)-4-methyl-1H-pyrazole-3-amido]piperidine-1-carboxylate] | – | – | – | – | – | Binding Selectivity using CP55940 Displacement (CB1 [1]; Table 5): 551.1; Ki (CB1 [1]; Table 5, read-out: Ki (nM) v. [3H] CP55940 at CB1): 0.0146 µM; Ki (CB2; Table 5, read-out: Ki (nM) v. [3H] CP55940 at CB2): 8.07 µM; Kb (CB1 [3]): 28.6 nM
10 | Cc1c(C(=O)N2CCC(N)(c3ccccc3)CC2)nn(-c2ccc(Cl)cc2Cl)c1-c1ccc(Cl)cc1 [Cl, phenyl, NH2, 1-{[5-(4-chlorophenyl)-1-(2,4-dichlorophenyl)-4-methyl-1H-pyrazol-3-yl]carbonyl}-4-phenylpiperidin-4-amine] | 10.8 | 0.104 | 1.13 | – | 0.0305 | Kb (CB1 [3]; [7]): 485 nM
11 | Cc1c(C(=O)N2CCC(C(N)=O)(c3ccccc3)CC2)nn(-c2ccc(Cl)cc2Cl)c1-c1ccc(Cl)cc1 [Cl, phenyl, C(O)NH2, 1-{[5-(4-chlorophenyl)-1-(2,4-dichlorophenyl)-4-methyl-1H-pyrazol-3-yl]carbonyl}-4-phenylpiperidine-4-carboxamide] | 1600.0 | 0.00344 | 5.5 | 8.1 ± 11.5 | 0.00044 | Kb (CB1 [3]): 0.45 nM
12 | CCCCNC(=O)NC1(c2ccccc2)CCN(C(=O)c2nn(-c3ccc(Cl)cc3Cl)c(-c3ccc(Cl)cc3)c2C)CC1 [Cl, phenyl, NHC(O)NHC4H9, 3-butyl-1-(1-{[5-(4-chlorophenyl)-1-(2,4-dichlorophenyl)-4-methyl-1H-pyrazol-3-yl]carbonyl}-4-phenylpiperidin-4-yl)urea] | 178.1 | 0.0155 | 2.76 | – | – | Kb (CB1 [3]; [7]): 0.41 nM
13 | Cc1c(C(=O)N2CCC(NC(=O)OC(C)(C)C)(c3ccccc3)CC2)nn(-c2ccc(Cl)cc2Cl)c1-c1ccc(Cl)cc1 [Cl, phenyl, NHC(O)O(t-butyl), tert-Butyl N-(1-{[5-(4-chlorophenyl)-1-(2,4-dichlorophenyl)-4-methyl-1H-pyrazol-3-yl]carbonyl}-4-phenylpiperidin-4-yl)carbamate] | 48.9 | 0.0423 | 2.11 | <1 | 0.00602 | –
14 | Cc1c(C(=O)N2CCC(NS(C)(=O)=O)(c3ccccc3)CC2)nn(-c2ccc(Cl)cc2Cl)c1-c1ccc(Cl)cc1 [Cl, phenyl, NHSO2CH3, N-(1-{[5-(4-chlorophenyl)-1-(2,4-dichlorophenyl)-4-methyl-1H-pyrazol-3-yl]carbonyl}-4-phenylpiperidin-4-yl)methanesulfonamide] | 5.6 | 0.00727 | 0.041 | 3.14 ± 0.89 | 0.00328 | –
15 | Cc1c(C(=O)N2CCC(NC(=O)NC(C)C)(c3ccccc3)CC2)nn(-c2ccc(Cl)cc2Cl)c1-c1ccc(Cl)cc1 [Cl, phenyl, NHC(O)NHCH(CH3)2, 1-(1-{[5-(4-chlorophenyl)-1-(2,4-dichlorophenyl)-4-methyl-1H-pyrazol-3-yl]carbonyl}-4-phenylpiperidin-4-yl)-3-(propan-2-yl)urea] | 364.0 | 0.0135 | 4.91 | <1 | – | –
